Laboratory results from patent publication US6733777B2, “Cationic reagents of transfection” (Qiagen GmbH, priority 1996, dated 2004).
Read-outs that look alike come from different tables or passages of the source. Marks after values point to notes of the source that are not given here.

Legend:
COS7 cells = assay: Transfection of COS7 cells with pCMVβ, β-Gal activity assay (cytofectins having three ammonium groups); type: cell-based; settings: liposome with DOPE, 0.5 μg pCMVβ
Experimental: (§1) N,N′,N″-trialkyl-N,N,N′,N″,N″-pentamethyl-bis-(2-ammonioethyl)ammoniumbromide Liposomes comprising compound (3) [synthesis according to Example 1B] and DOPE were prepared at 60° C., using DOPE without sonication.
(§2) Cells were incubated for 48 hours at 37° C., 5% CO2 and then lysed.
(§3) The results below (Table 7) indicate the optimal transfection efficiency of the reporter plasmid pCMVβ using the above-mentioned liposomes as a percentage of the highest transfection efficiency obtained by Lipofectamine. R indicates the number of carbons in the alkyl chain. Concentration of DOPE in each liposome may be calculated by multiply the X(DOPE) value by […].

HeLaS3 cells [1] = assay: Transfection of HeLaS3 cells with pCMVβ, β-Gal activity assay (cytofectins having three ammonium groups); type: cell-based; settings: liposome with DOPE, 0.5 μg pCMVβ
Experimental: as §1, §2, §3

HeLaS3 cells [2] = assay: Transfection of HeLaS3 cells with pCMVβ, β-Gal activity assay (variation of counter ion); type: cell-based; settings: 10-2-10 cytofectin with the given counter ion; for Results (%) (optimal transfection efficiency as percentage of the highest efficiency obtained by Lipofectamine): liposome with DOPE, 0.5 μg pCMVβ; for ranking of transfection efficiency among the counter ions (in words) / transfection efficiency compared with Lipofectamine (in words): liposomes with DOPE
Experimental: Liposomes were used to transfect HeLaS3 cells in vitro with the reporter plasmid pCMVβ (Clontech). […] Cells were incubated for 48 hours at 37° C., 5% CO2 and then lysed.
In similar studies in HeLaS3 cells, the same vector was transfected with liposomes comprising bromide counter ions and the cytofectin, 10-2-10 Ethandiyl-1,2-bis(decyl dimethylammonium).

Huh7 cells = settings: Huh7, liposome with DOPE, 0.5 μg pCMVβ
Experimental: The resulting liposomes were used to transfect Huh7 cells in vitro with the reporter plasmid pCMVβ (Clontech). Transfection efficiencies, as obtained by OD measurements after cell-lysis and β-Gal activity assay, were compared to efficiencies obtained in parallel with a commercially available liposome-preparation (Lipofectamine, Gibco LTI) and given as percentage of Lipofectamine efficiency. For each transfection, 0.5 μg of pCMVβ (isolated with EndoFree, QIAGEN) was used per well of a 96 well plate. The DNA was diluted to 50 μl with DMEM medium (Gibco LTI) and combined with 1, 2, 3 and 4 μl of the liposome preparations subsequently diluted to 50 μl with DMEM medium. DNA and liposome solutions were mixed and applied to the cells for 6 hours at 37° C., 5% CO2. Afterwards, medium was changed to DMEM containing 10% fetal calf serum. Cells were lysed after 48 h incubation at 37° C., 5% CO2. Twofold determinations each were performed. The values were averaged and the highest efficiency (optimum) within a row was given as percentage value of the highest efficiency (optimum) obtained with Lipofectamine.

[3] = X(DOPE) 0.5, without sonication
[4] = X(DOPE) 0.6, without sonication
[5] = X(DOPE) 0.7, without sonication
[6] = X(DOPE) 0.8, without sonication
[7] = X(DOPE) 0.50, without sonication
[8] = X(DOPE) 0.60, without sonication
[9] = X(DOPE) 0.70, without sonication
[10] = X(DOPE) 0.80, without sonication

Compound | Results COS7 (%) (optimal transfection efficiency as percentage of the highest efficiency obtained by Lipofectamine) (COS7 cells; [3]) | Results COS7 (%) (optimal transfection efficiency as percentage of the highest efficiency obtained by Lipofectamine) (COS7 cells; [4]) | Results COS7 (%) (optimal transfection efficiency as percentage of the highest efficiency obtained by Lipofectamine) (COS7 cells; [5]) | Results COS7 (%) (optimal transfection efficiency as percentage of the highest efficiency obtained by Lipofectamine) (COS7 cells; [6]) | Results HeLaS3 (%) (optimal transfection efficiency as percentage of the highest efficiency obtained by Lipofectamine) (HeLaS3 cells [1]; [3]) | Results HeLaS3 (%) (optimal transfection efficiency as percentage of the highest efficiency obtained by Lipofectamine) (HeLaS3 cells [1]; [4]) | Results HeLaS3 (%) (optimal transfection efficiency as percentage of the highest efficiency obtained by Lipofectamine) (HeLaS3 cells [1]; [5]) | Results HeLaS3 (%) (optimal transfection efficiency as percentage of the highest efficiency obtained by Lipofectamine) (HeLaS3 cells [1]; [6]) | Results (%) (optimal transfection efficiency as percentage of the highest efficiency obtained by Lipofectamine) (HeLaS3 cells [2]; [7]) | Results (%) (optimal transfection efficiency as percentage of the highest efficiency obtained by Lipofectamine) (HeLaS3 cells [2]; [8]) | Results (%) (optimal transfection efficiency as percentage of the highest efficiency obtained by Lipofectamine) (HeLaS3 cells [2]; [9]) | Results (%) (optimal transfection efficiency as percentage of the highest efficiency obtained by Lipofectamine) (HeLaS3 cells [2]; [10]) | further results
CCCCCCCCCC[N+](C)(C)CC[N+](C)(CCCCCCCCCC)CC[N+](C)(C)CCCCCCCCCC.[Br-].[Br-].[Br-] [R = 10, N,N′,N″-tridecyl-N,N,N′,N″,N″-pentamethyl-bis-(2-ammonioethyl)-ammoniumbromide] | 11 | 9 | 16 | 20 | 231 | 222 | 52 | 47 | – | – | – | – | –
CCCCCCCCCCCC[N+](C)(C)CC[N+](C)(CCCCCCCCCCCC)CC[N+](C)(C)CCCCCCCCCCCC.[Br-].[Br-].[Br-] [R = 12, N,N′,N″-tridodecyl-N,N,N′,N″,N″-pentamethyl-bis-(2-ammonioethyl)-ammoniumbromide] | 3 | 5 | 8 | 29 | 0 | 9 | 17 | 63 | – | – | – | – | –
CCCCCCCCCCCCCC[N+](C)(C)CC[N+](C)(CCCCCCCCCCCCCC)CC[N+](C)(C)CCCCCCCCCCCCCC.[Br-].[Br-].[Br-] [R = 14, N,N′,N″-tritetradecyl-N,N,N′,N″,N″-pentamethyl-bis-(2-ammonioethyl) ammoniumbromide] | 8 | 9 | 12 | 58 | 7 | 7 | 9 | 35 | – | – | – | – | –
CCCCCCCCCCCCCCCC[N+](C)(C)CC[N+](C)(CCCCCCCCCCCCCCCC)CC[N+](C)(C)CCCCCCCCCCCCCCCC.[Br-].[Br-].[Br-] [R = 16, N,N′,N″-trihexadecyl-N,N,N′,N″,N″-pentamethyl-bis-(2-ammonioethyl)-ammoniumbromide] | 18 | 16 | 44 | 38 | 31 | 39 | 70 | 75 | – | – | – | – | –
CCCCCCCCCCCCCCCCCC[N+](C)(C)CC[N+](C)(CCCCCCCCCCCCCCCCCC)CC[N+](C)(C)CCCCCCCCCCCCCCCCCC.[Br-].[Br-].[Br-] [R = 18, N,N′,N″-trioctadcyl-N,N,N′,N″,N″-pentamethyl-bis-(2-ammonioethyl)-ammoniumbromide] | 20 | 34 | 79 | 93 | 65 | 61 | 80 | 61 | – | – | – | – | –
CCCCCCCCCC[N+](C)(C)CC[N+](C)(C)CCCCCCCCCC.O=P([O-])(O)O.O=P([O-])(O)O [dihydrogenphosphate, Ethanediyl-1,2-bis(decyldimethylammonium) dihydrogenphosphate] | – | – | – | – | – | – | – | – | 1966% | > 3230* % | 580 | 615 | ranking of transfection efficiency among the counter ions (in words) (HeLaS3 cells [2]): highest transfection efficiencies; transfection efficiency compared with Lipofectamine (in words) (HeLaS3 cells [2]): higher transfection efficiency values than transfections with Lipofectamine
CCCCCCCCCC[N+](C)(C)CC[N+](C)(C)CCCCCCCCCC.O=C([O-])C(=O)[O-] [oxalate, Ethanediyl-1,2-bis(decyldimethylammonium) oxalate] | – | – | – | – | – | – | – | – | 275% | 0% | 0 | 0 | –
CCCCCCCCCC[N+](C)(C)CC[N+](C)(C)CCCCCCCCCC.O=S(=O)([O-])[O-] [sulfate, ethanediyl-1,2-bis(dimethyldecylammonium sulfate)] | – | – | – | – | – | – | – | – | 879% | 927% | 265 | 1201 | transfection efficiency compared with Lipofectamine (in words) (HeLaS3 cells [2]): higher transfection efficiency values than transfections with Lipofectamine
Ethanediyl-1,2-bis(decyl dimethylammonium) iodide | – | – | – | – | – | – | – | – | > 3230* % | > 3230* % | 686 | 457 | ranking of transfection efficiency among the counter ions (in words) (HeLaS3 cells [2]): highest transfection efficiencies; transfection efficiency compared with Lipofectamine (in words) (HeLaS3 cells [2]): higher transfection efficiency values than transfections with Lipofectamine
Ethanediyl-1,2-bis(decyl dimethylammonium) thiosulfate | – | – | – | – | – | – | – | – | 1552% | 1915% | 605 | 844 | transfection efficiency compared with Lipofectamine (in words) (HeLaS3 cells [2]): higher transfection efficiency values than transfections with Lipofectamine
Ethanediyl-1,2-bis(dodecyl dimethylammonium bromide) [12-2-12] | – | – | – | – | – | – | – | – | – | – | – | – | Result (%) (transfection efficiency as percentage of Lipofectamine efficiency) (Huh7 cells; [7]): 70%; Result (%) (transfection efficiency as percentage of Lipofectamine efficiency) (Huh7 cells; [8]): 127%; Result (%) (transfection efficiency as percentage of Lipofectamine efficiency) (Huh7 cells; [9]): 138%; Result (%) (transfection efficiency as percentage of Lipofectamine efficiency) (Huh7 cells; [10]): 89%
Ethanediyl-1,2-bis(hexadecyl dimethylammonium bromide) [16-2-16] | – | – | – | – | – | – | – | – | – | – | – | – | Result (%) (transfection efficiency as percentage of Lipofectamine efficiency) (Huh7 cells; [7]): 104%; Result (%) (transfection efficiency as percentage of Lipofectamine efficiency) (Huh7 cells; [8]): 124%; Result (%) (transfection efficiency as percentage of Lipofectamine efficiency) (Huh7 cells; [9]): 126%; Result (%) (transfection efficiency as percentage of Lipofectamine efficiency) (Huh7 cells; [10]): 169%
Ethanediyl-1,2-bis(octadecyl dimethylammonium bromide) [18-2-18] | – | – | – | – | – | – | – | – | – | – | – | – | Result (%) (transfection efficiency as percentage of Lipofectamine efficiency) (Huh7 cells; [7]): 82%; Result (%) (transfection efficiency as percentage of Lipofectamine efficiency) (Huh7 cells; [8]): 68%; Result (%) (transfection efficiency as percentage of Lipofectamine efficiency) (Huh7 cells; [9]): 105%; Result (%) (transfection efficiency as percentage of Lipofectamine efficiency) (Huh7 cells; [10]): 115%
Ethanediyl-1,2-bis(tetradecyl dimethylammonium bromide) [14-2-14] | – | – | – | – | – | – | – | – | – | – | – | – | Result (%) (transfection efficiency as percentage of Lipofectamine efficiency) (Huh7 cells; [7]): 48%; Result (%) (transfection efficiency as percentage of Lipofectamine efficiency) (Huh7 cells; [8]): 74%; Result (%) (transfection efficiency as percentage of Lipofectamine efficiency) (Huh7 cells; [9]): 98%; Result (%) (transfection efficiency as percentage of Lipofectamine efficiency) (Huh7 cells; [10]): 157%
